Experimental data as given in patent US4393225A, “AI-77 Compounds and pharmaceutically acceptable salts thereof” (Asahi Kasei Kogyo Kabushiki Kaisha, priority 1979, dated 1983).

Tested on: ulcer
Experiment: Anti-ulcer test (restraint and water immersion ulcer in rats, i.p.)
Assay type: in vivo, Male Wistar rats
Conditions: Rattus norvegicus, ip; 50 mg/kg i.p.; read-out: % Inhibition of Ulcer
Procedure, shortened: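 Compound given intraperitoneally in saline to 24 h-fasted male Wistar rats about 150 g, followed after one hour by 6 h restraint with water immersion at 21 °C. Gastric lesions graded 0, 0.5, 1, 2 or 3 on microscopic inspection and converted to percent ulcer inhibition.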

Compound	inhibition in vivo at 50 mg/kg
CCOc1cccc2c1C(=O)OC(C(CC(C)C)NC(=O)C(O)C1OC(=O)CC1NC(=O)c1ccc(C)cc1)C2 (stereo not shown) [IIIa-5-37]	44%
CCOc1cccc2c1C(=O)OC(C(CC(C)C)NC(=O)C(O)C1OC(=O)CC1NC(=O)c1ccc(CCC(C)C)cc1)C2 (stereo not shown) [IIIa-5-38]	33%
CCOc1cccc2c1C(=O)OC(C(CC(C)C)NC(=O)C(O)C1OC(=O)CC1NC(=O)c1ccc(OC)cc1)C2 (stereo not shown) [IIIa-5-39]	44%
CCOc1cccc2c1C(=O)OC(C(CC(C)C)NC(=O)C(O)C1OC(=O)CC1NC(=O)CC(C)OC)C2 (stereo not shown) [IIIa-5-41]	33%
CCCCCOC(C)CC(=O)NC1CC(=O)OC1C(O)C(=O)NC(CC(C)C)C1Cc2cccc(OCC)c2C(=O)O1 (stereo not shown) [IIIa-5-42]	33%
CCOc1cccc2c1C(=O)OC(C(CC(C)C)NC(=O)C(O)C1OC(=O)CC1NC(=O)CSC)C2 (stereo not shown) [IIIa-5-43]	44%
CCCCCSCC(=O)NC1CC(=O)OC1C(O)C(=O)NC(CC(C)C)C1Cc2cccc(OCC)c2C(=O)O1 (stereo not shown) [IIIa-5-44]	33%
CCOc1cccc2c1C(=O)OC(C(CC(C)C)NC(=O)C(O)C1OC(=O)CC1NC(=O)c1ccc(SC)cc1)C2 (stereo not shown) [IIIa-5-45]	33%
CCCCCSc1ccc(C(=O)NC2CC(=O)OC2C(O)C(=O)NC(CC(C)C)C2Cc3cccc(OCC)c3C(=O)O2)cc1 (stereo not shown) [IIIa-5-46]	33%
CCOc1cccc2c1C(=O)OC(C(CC(C)C)NC(=O)C(O)C1OC(=O)CC1NC(=O)CC(C)OC(C)=O)C2 (stereo not shown) [IIIa-5-47]	33%
CCCCCC(=O)OC(C)CC(=O)NC1CC(=O)OC1C(O)C(=O)NC(CC(C)C)C1Cc2cccc(OCC)c2C(=O)O1 (stereo not shown) [IIIa-5-48]	33%
CCOc1cccc2c1C(=O)OC(C(CC(C)C)NC(=O)C(O)C1OC(=O)CC1NC(=O)c1ccc(C(=O)OC)cc1)C2 (stereo not shown) [IIIa-5-49]	33%
CCCCCOC(=O)c1ccc(C(=O)NC2CC(=O)OC2C(O)C(=O)NC(CC(C)C)C2Cc3cccc(OCC)c3C(=O)O2)cc1 (stereo not shown) [IIIa-5-50]	33%
C#CC(=O)NC1CC(=O)OC1C(O)C(=O)NC(CC(C)C)C1Cc2cccc(OCC)c2C(=O)O1 (stereo not shown) [IIIa-5-51]	44%
C/C=C/C(=O)NC1CC(=O)OC1C(O)C(=O)NC(CC(C)C)C1Cc2cccc(OCC)c2C(=O)O1 (stereo not shown) [IIIa-5-53]	33%
CCOc1cccc2c1C(=O)OC(C(CC(C)C)NC(=O)C(O)C1OC(=O)CC1NC(=O)CCCCC(C)CC)C2 (stereo not shown) [IIIa-5-55]	33%

Compound	inhibition in vivo at 50 mg/kg
CCOc1cccc2c1C(=O)OC(C(CC(C)C)NC(=O)C(O)C1OC(=O)CC1NC(=O)C=Cc1ccoc1)C2 (stereo not shown) [IIIa-5-56]	44%
CCOc1cccc2c1C(=O)OC(C(CC(C)C)NC(=O)C(O)C1OC(=O)CC1NC(=O)Cc1cccnc1)C2 (stereo not shown) [IIIa-5-57]	33%
CCOc1cccc2c1C(=O)OC(C(CC(C)C)NC(=O)C(O)C1OC(=O)CC1NC(=O)C1CCC=CO1)C2 (stereo not shown) [IIIa-5-58]	44%
CCOc1cccc2c1C(=O)OC(C(CC(C)C)NC(=O)C(O)C1OC(=O)CC1NC(=O)c1cocc1C(=O)O)C2 (stereo not shown) [IIIa-5-59]	44%
CCOc1cccc2c1C(=O)OC(C(CC(C)C)NC(=O)C(O)C1OC(=O)CC1NC(=O)C1CCCCCCC1)C2 (stereo not shown) [IIIa-5-60]	44%
CCOc1cccc2c1C(=O)OC(C(CC(C)C)NC(=O)C(O)C1OC(=O)CC1NC(=O)CCC1CCCC1)C2 (stereo not shown) [IIIa-5-61]	33%
CCOc1cccc2c1C(=O)OC(C(CC(C)C)NC(=O)C(O)C1OC(=O)CC1NC(=O)Cc1ccc3ccccc3c1)C2 (stereo not shown) [IIIa-5-62]	33%
CCOc1cccc2c1C(=O)OC(C(CC(C)C)NC(=O)C(O)C1OC(=O)CC1NC(=O)Cc1ccc(C)cc1)C2 (stereo not shown) [IIIa-5-63]	33%
CCOc1cccc2c1C(=O)OC(C(CC(C)C)NC(=O)C(O)C1OC(=O)CC1NC(=O)C1CCC(C(=O)OC)CC1)C2 (stereo not shown) [IIIa-5-66]	44%
CCOc1cccc2c1C(=O)OC(C(CC(C)C)NC(=O)C(O)C1OC(=O)CC1NC(=O)c1ccc(C(C)C)cc1)C2 (stereo not shown) [IIIa-5-67]	44%
CCOc1cccc2c1C(=O)OC(C(CC(C)C)NC(=O)C(O)C1OC(=O)CC1NC(=O)C1CC3C=CC1C3)C2 (stereo not shown) [IIIa-5-69]	33%
CCOc1cccc2c1C(=O)OC(C(CC(C)C)NC(=O)C(O)C1OC(=O)CC1NC(=O)C1CCC(OC)CC1)C2 (stereo not shown) [IIIa-5-71]	33%
CCOc1cccc2c1C(=O)OC(C(CC(C)C)NC(=O)C(O)C1OC(=O)CC1NC(=O)Cn1cnnn1)C2 (stereo not shown) [IIIa-5-72]	44%
CCCCCc1ccc(C(=O)NC2CC(=O)OC2C(O)C(=O)NC(CC(C)C)C2Cc3cccc(OCC)c3C(=O)O2)cc1 (stereo not shown) [IIIa-5-73]	44%
CCCC=Cc1ccc(C(=O)NC2CC(=O)OC2C(O)C(=O)NC(CC(C)C)C2Cc3cccc(OCC)c3C(=O)O2)cc1 (stereo not shown) [IIIa-5-74]	44%
